In brackets after ≈: the same amount, converted by molar mass. Like-named read-outs stand apart in the source and are kept apart here.
Legend:
C. albicans BWP17 = assay: Zinbo-5 assay (intracellular zinc); type: cell-based, Candida albicans; details: 9 μg/ml ZAC989, 7 μg/ml ZAC307 (25 μM), 15 μg/ml EDTA, 1.3 μg/ml TPEN; 1, 8 or 24 h
Procedure: C. albicans BWP17 was grown overnight in YPD medium at 30°C and 150 rpm. The cells were pelleted, washed in PBS buffer (D8537; Sigma) 3 times, and resuspended to an OD600 of 2.0. Two microliters of compound in DMSO was mixed with 100 μl of cell suspension and incubated statically for 1, 8, or 24 h at 30°C in a 96-well black plate. Thirty minutes before the end of the incubation period, 100 μl of 10 μM Zinbo-5 (sc-222425; Santa Cruz Biotechnology) in PBS buffer was added. […] The plate was then read on a plate reader (FLUOstar Optima; BMG Lab Technologies) with excitation at 355 nm and emission at 485 nm. The decrease in Zinbo-5 fluorescence was calculated relative to the untreated DMSO control.

C. albicans SC5314 = assay: Antifungal susceptibility testing (MIC); type: cell-based, Candida albicans; details: at least 50% growth inhibition, RPMI, 24 h, 34°C
Procedure: Antifungal susceptibility testing was carried out as described previously ([38], [39]), with a few modifications. Briefly, for each yeast or mold growth inhibition assay, frozen stocks of yeast cells or spores were diluted to a final concentration of 0.5 × 10^5 to 2.5 × 10^5 CFU/ml in sterile water. ZAC989, ZAC307, and ZAC623 were dissolved in DMSO to 10 mM stocks from which half-log serial dilutions were prepared. Growth assays were subsequently performed by pipetting 3 μl of compound dissolved in DMSO (giving a final concentration of 1.5% DMSO), 100 μl of cell-spore suspension, and 97 μl of 2× RPMI medium (20.8 g/liter of RPMI 1640 medium, 69.06 g/liter of morpholinepropanesulfonic acid [MOPS], 36 g/liter of glucose) into a microtiter plate that was incubated for 24 h (yeasts) or 48 to 72 h (molds) at 34°C. Fungal growth was determined spectrophotometrically by optical density reading of each well at a wavelength of 492 nm on a Victor X5 (Perkin-Elmer) plate reader. […] Standard errors between repeated experiments were generally below 5%. The growth effect of exogenous addition of various divalent metals was evaluated by performing the antifungal susceptibility assay in the presence of 5 μM ZAC989 or ZAC307 and with increasing concentrations (0.003 to 50 μM) of ZnSO4, CuSO4, (NH4)2Fe(SO4)2, MgCl2, and CaCl2.

C. albicans = assay: Fungal growth recovery after prolonged exposure (MFC); type: cell-based, Candida albicans; details: for growth recovery after exposure: 5 days of exposure, then compound-free medium (EDTA: during compound incubation, 0.22 to 22 μg/ml)
[1] = Fluorescence-based competition assay using FluoZin-3 (compound-Zn2+ dissociation constant); type: binding; details: FluoZin-3 competition, PBS pH 7.4, room temperature; read-out: Compound-Zn^2+ KD
Procedure: The dissociation constant (Kd) of zinc to zinc-attenuating compounds was determined at room temperature using FluoZin-3 (F24194; […] Testing buffer consisted of PBS (pH 7.4) with 200 nM ZnCl2 and 500 nM FluoZin-3. In a microtiter plate, 98 μl of testing buffer was mixed with 2 μl of compound at a range of concentrations to determine the half-maximal inhibitory concentration (IC50). Testing plates were incubated for 2 min before being read at an excitation wavelength of 485 nm and an emission wavelength of 516 nm with a Fluoroskan Ascent microplate fluorometer (Thermo Fisher Scientific).

ZafA target genes = assay: RT-qPCR of ZafA target genes and genes not regulated by ZafA; type: cell-based, Aspergillus fumigatus; details: zinc-limiting conditions, 2 h; for expression of the ZafA target genes: 21 μg/ml ZAC307, 27 μg/ml ZAC989, 146 μg/ml EDTA, 10.6 μg/ml TPEN; for expression levels of the genes not regulated by ZafA: 21 μg/ml ZAC307, 27 μg/ml ZAC989
Procedure: A total of 1.5 × 10^6 conidia of the wild-type strain (AF14) were inoculated into 20 ml of 0.7× sRPMI, 0.05% Tween 20, and 1.2% ethanol dispensed into 100-ml culture flasks pretreated with an overnight wash in 2 mM EDTA (pH 8.0) to minimize the presence of metal traces, followed by a thorough washing with ultrapure Milli-Q water. The flasks were subsequently sterilized in an oven at 180°C. The cultures were incubated for 20 h at 37°C and 200 rpm before the following were added: (i) pure ethanol to a final concentration of 1.2% (vol/vol) (as a reference for the transcription profiles of all genes under zinc-limiting conditions), (ii) 1.2% ethanol plus a solution of ZnSO4 to a final concentration 20 μM zinc (as a reference for the transcription profiles of all genes under zinc-replete conditions following the zinc shift), (iii) 1.2% ethanol plus a solution of EDTA to a final concentration of 500 μM, (iv) 1.2% ethanol plus a solution of TPEN to a final concentration of 10.6 μg/ml, and (v) a 5 mM solution of each test compound (ZAC307 or ZAC989) dissolved in 80% ethanol to a final concentration of 75 μM and 1.2% ethanol (which correspond to 21 μg/ml and 27 μg/ml, respectively). After compound addition, cultures were incubated for 2 h at 37°C and 200 rpm and mycelia were harvested by filtration through filter paper, washed twice with sterile waterm and snap-frozen in liquid nitrogen. After grinding of the mycelia in the presence of liquid nitrogen, total RNA was extracted using an RNeasy plant minikit (74904; Qiagen) according to the manufacturer's instructions. RNA was eluted in 50 μl of RNase-free water. RNA integrity was verified on 0.8% agarose gels stained with ethidium bromide. RNA was stored at −80°C until use.
Total RNA concentration and quality were determined by UV spectrometry (NanoDrop ND1000 spectrophotometer; Thermo Fisher Scientific), and all samples were brought to a final concentration of 150 ng/μl. Total RNA (1.5 μg) was treated with RQ1 DNase I (M610; Promega) and subsequently assessed by conventional PCR for the complete absence of genomic DNA (gDNA). Subsequently, 1 μg of DNase-treated RNA was reversed transcribed using SuperScript II reverse transcriptase (18064-014; Invitrogen, Thermo Fisher Scientific), with random hexamers (11034731001; Roche Diagnostics) as primers. Prior to qPCRs, cDNA samples were diluted 1:3 in water, except in the case of reactions against the 18S rRNA, for which samples were diluted 1:1,200 in water. qPCRs were performed on a Bio-Rad CFX96 instrument. A typical qPCR mixture (10 μl) contained 13.5 ng of cDNA (32 pg when the qPCR was for 18S rRNA), a specific pair of primers (150 nM final concentration), and the SYBR premix Ex Taq (RR420A; TaKaRa). For all qPCRs, 40 cycles were performed using the following cycling conditions: denaturation at 95°C for 10 s, annealing at 59°C for 20 s, and extension at 72°C for 20 s. The relative expression ratio (rER) was calculated using the threshold cycle (2^−ΔΔCT) method ([42]) using the expression level of the 18S rRNA as an internal reference.

[2] = Candida albicans, SC5314, 24 h, read-out: MIC

Structure (SMILES) | Zinbo-5 fluorescence (C. albicans BWP17) | MIC (C. albicans SC5314; [2]) | growth recovery after exposure (C. albicans) | Kd [1] | expression of the ZafA target genes (ZafA target genes) | concentration above which exposed cells showed poor recovery (C. albicans; prolonged exposure) | MIC (C. albicans SC5314) | expression levels of the genes not regulated by ZafA (ZafA target genes)
O=C(O)CN(CCN(CC(=O)O)CC(=O)O)CC(=O)O [EDTA] | did not reduce the Zinbo-5 fluorescence | ~0.05 µg/mL (≈ 0.171 µM) | resumed visible growth after 48 h of compound incubation | < 10 nM | upregulation of the most direct ZafA target genes | – | – | –
c1ccc(CN(CCN(Cc2ccccn2)Cc2ccccn2)Cc2ccccn2)nc1 [TPEN, N,N,N’,N’-tetrakis(2-pyridylmethyl)-ethylenediamine] | time-dependent decrease in Zinbo-5 fluorescence | ~0.05 µg/mL (≈ 0.118 µM) | poor recovery | < 10 nM | higher expression of the ZafA target genes than attained with EDTA | above 2 μg/ml | – | –
Cc1cc(O)n(-c2cc(N3CC[C@H](Oc4cnccc4C#N)C3)ncn2)n1 [ZAC989, 3-[(3S)-1-[6-(5-hydroxy-3-methyl-pyrazol-1-yl)pyrimidin-4-yl]pyrrolidin-3-yl]oxy-pyridine-4-carbonitrile] | time-dependent decrease in Zinbo-5 fluorescence | 0.4 µg/mL (≈ 1.1 µM) | resume normal growth | 13 nM | inhibited the expression of the ZafA target genes | – | 0.6 µg/mL (≈ 1.65 µM) | did not have a noticeable effect
CN(C)c1cc(-n2nc(-c3ccccc3)cc2O)ncn1 [ZAC307, 2-[6-(dimethylamino)pyrimidin-4-yl]-5-phenyl-pyrazol-3-ol] | decreased the Zinbo-5 fluorescence after only 1 h of incubation | 0.4 µg/mL (≈ 1.42 µM) | resume normal growth | 71 nM | inhibited the expression of the ZafA target genes | – | – | reduced expression levels for most of the investigated genes that were not regulated by ZafA

Source: publication PMC5923171, “Novel Zinc-Attenuating Compounds as Potent Broad-Spectrum Antifungal Agents with In Vitro and In Vivo Efficacy” (Antimicrobial Agents and Chemotherapy, 2018)
